Values after ≈ are worked out from the molar mass of the structure shown. Where two headings read alike, the source gives them in different places.
Assays:
[1] = tested on: WT β-clamp; assay: SPR analysis, immobilized WT β-clamp; assay type: binding, Escherichia coli; conditions: 4-128 μM peptide, single-cycle mode, 25°C, PBS P+ pH 7.4; Figure 2A
Description: (§4) The experiment was performed with Biacore S200 (GE Healthcare), at 25°C with a flowrate of 30 μl/min. Purified WT and mutant β-clamp protein were immobilized by amine coupling on CM5 Series S sensor chips (GE Healthcare).
(§5) Octamer peptides containing APIM motifs (underlined) [sequence] and [sequence] were diluted in running buffer (PBS P+ buffer: 20 mM phosphate buffer pH 7.4, 3 mM KCl, 137 mM NaCl, 0.05% surfactant P20) at 4, 8, 16, 32, 64 and 128 μM, and analyzed by single-cycle mode. Six consecutive injections of alternating running buffer or peptide in running buffer, with an association phase of 120 seconds (s) followed by a dissociation phase of 60 s and a final dissociation phase of 600 s, were run for each β-clamp protein variant. The running buffer series were used as blanks together with the signal from the reference channels for double-reference subtraction. After each series of six injections, the sensor chip was washed with a 120 s regeneration injection of 1 M NaCl followed by a 120 s injection of running buffer. The sensorgrams were processed (reference subtracted) with Biacore S200 Evaluation Software Version 1.1 (GE Healthcare) and normalized according to the immobilized level.

[2] = tested on: mutant β-clamps (H148K, M362D, V151A, P363D, P242D, V247F); assay: SPR analysis, immobilized mutant β-clamps; assay type: binding, Escherichia coli; conditions: Figure 2B
Description: as §4, §5

[3] = tested on: β-clamp; conditions: peptide:β-clamp 100:5 μM (RWLVK, RALVK octamers) or 50:20 μM (Pol III peptide); 298 K, pH 7.4
Description: All NMR spectra were recorded in a standard 5 mm NMR tube at 298 K in 20 mM NaH2PO4, 100 mM NaCl, pH 7.4, 0.25 mM DSS, 10% D2O on a Bruker AVANCE III 800-MHz (^1H) spectrometer equipped with a room temperature probe. Free induction decays were transformed and analyzed in Topspin (Bruker Biospin) and the aromatic region assigned.

[4] = tested on: S.aureus ATCC 29213; assay: microbe, parasite or virus in culture; assay type: cell-based, Staphylococcus aureus
Description: (§1) Briefly, bacterial suspension in Mueller-Hinton Broth was adjusted to 0.5 McFarland and diluted to 5 × 10^5 CFU/ml. The suspension (0.1 ml) was seeded in polypropylene microtiter plates (Greiner), 5 × 10^4 CFU/well. APIM-peptides were added as 10% of the total volume. Initial inoculums were quantified by seeding on agar for verification of the estimated CFU/mL. After 24 hours (h) incubation at 37°C, the microtiter plates were inspected for visible growth.
(§2) Determination of minimal inhibitory concentrations (MICs) for S. aureus was done at Statens Serum Institute, Copenhagen, Denmark.

[5] = tested on: S.aureus FDA486; assay: microbe, parasite or virus in culture; assay type: cell-based, Staphylococcus aureus
Description: as §1, §2

[6] = tested on: S.aureus (MRSA) 43484; assay type: cell-based, Staphylococcus aureus
Description: as §1, §2

[7] = tested on: S.aureus FusA88799; assay type: cell-based, Staphylococcus aureus; conditions: n = 3
Description: as §1, §2

[8] = tested on: S.epidermidis (MRSE); assay type: cell-based, Staphylococcus epidermidis; conditions: 24 h
Description: as §1

[9] = tested on: E. coli BL21; assay type: cell-based, Escherichia coli; conditions: Mueller-Hinton Broth, 5 × 10^5 CFU/ml, 24 h, 37°C; average of ≥3 independent biological experiments
Description: as §1

[10] = tested on: E. coli MG1655; assay type: cell-based, Escherichia coli; conditions: Mueller-Hinton Broth, 5 × 10^5 CFU/ml, 24 h, 37°C; average of ≥3 independent biological experiments
Description: as §1

[11] = target: T1, E.coli β-clamp (Escherichia coli, UniProt P0A988); assay: Microscale thermophoresis (MST) β-clamp binding
T1 construct: made in house
T1 sequence (P0A988 whole entry): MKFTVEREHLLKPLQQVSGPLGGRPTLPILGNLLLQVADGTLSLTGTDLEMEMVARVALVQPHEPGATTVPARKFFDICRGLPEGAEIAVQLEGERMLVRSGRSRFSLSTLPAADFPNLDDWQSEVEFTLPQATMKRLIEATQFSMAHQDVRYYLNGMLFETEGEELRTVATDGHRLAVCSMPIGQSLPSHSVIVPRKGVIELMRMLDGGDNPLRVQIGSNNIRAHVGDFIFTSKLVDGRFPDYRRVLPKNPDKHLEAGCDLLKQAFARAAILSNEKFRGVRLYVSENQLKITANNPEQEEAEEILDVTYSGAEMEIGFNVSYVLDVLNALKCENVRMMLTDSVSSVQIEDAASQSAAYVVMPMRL
Description: Purified E.coli β-clamp ([49]) was labeled using the RED-Maleimide Labelling Kit (NanoTemper Technologies, GmbH) according to the manufacturer's instructions applying a concentration of 20 μM protein at room temperature. The ligands, cell penetrating APIM-peptides, were dissolved and diluted in supplemented Microscale thermophoresis (MST) buffer (50 mM Tris–HCl pH 7.5, 150 mM NaCl, 10 mM MgCl2) with 2% fetal bovine serum and incubated for 10 min in room temperature. Series of 1:1 dilutions (16×), producing ligand concentrations ranging from 500 μM to 15 nM, were made. Each ligand solution was further diluted 1:1 with fluorescent labeled β-clamp (diluted in MST buffer, 3 nM) and incubated for 10 min. Fluorescence was measured for each protein-ligand sample using a Monolith NT.115 instrument (20% MST power and 100% LED power) and Monolith NT Standard Treated Capillaries (both NanoTemper Technologies, GmbH). To calculate the KD’s, fluorescence signals were plotted and analyzed using the supplemented software (NT Analysis software version 1.5.41 and MO.affinity analysis version 2.2.4, NanoTemper Technologies). Denaturation with SD-buffer (4% sodium dodecyl sulphate and 40 mM DTT) and re-measurement of total fluorescence confirmed that the observed change in fluorescence was due to ligand binding event.

[12] = tested on: E. coli MG1655; assay: Rif^R mutagenicity assay, added cell penetrating peptides; assay type: cell-based, Escherichia coli; conditions: for Mutation frequency, added peptides: spontaneous, E. coli MG1655, cell penetrating peptide 20 μM, average ± SEM, RWLVK n = 11, RFSLK n = 4, RWLK n = 7, R11 n = 5, control 10.5 ± 2.2
Description: (§3) The rifampicin resistance (Rif^R) mutagenicity assay was performed as described in ([50]) with some modifications. Briefly, E. coli BL21 expressing peptide variants were induced with (IPTG) (1 mM) at OD600 = 0.3–0.4 and cultured at 37°C, for 2 h before harvested. Bacteria from large culture volumes (up to 50 ml) were plated in order to obtain ∼100 Rif^R colonies per dish. The anti-mutagenic effect of cell penetrating APIM-peptides in E. coli MG1655 was done by adding 20 μM peptide at OD600 = 0.01, and the cells were cultured for 30 min. Next, the cells were pelleted and washed with PBS before UV-irradiated in (50 μl) PBS (2 mJ UVC/cm^2), re-suspended in 2.5 ml LB and cultured in 37°C for 2 h before plating on LB plates with and without Rif (100 μg/ml). The number of Rif^R colonies/ total CFU was determined after 1 and 2 days, respectively. Significance was calculated by using a two-tailed, paired, students t-test. Gentamicin resistance (Gen^R) was examined using a gentamicin sensitive clinical isolate of S. epidermidis. […] The cultures were grown in a shaking incubator (37°C) and were re-inoculated (1:100) every 24 h in fresh TSB and supplements. The cultures were plated on blood agar plates with and without gentamicin (10 mg/l) every day for 4 days, and the frequency of Gen^R colonies was determined by calculating the number of Gen^R colonies/total CFU.

[13] = tested on: E. coli MG1655 WT and TLS deletion mutant cells; assay: Rif^R mutagenicity assay in WT and TLS deletion strains; assay type: cell-based, Escherichia coli; conditions: peptide 20 μM
Text: S. aureus: ATCC 29213, FDA486, methicillin-resistant S. aureus strain (MRSA) 43484 and FusA88779; S. epidermidis: clinical isolates (including one gentamicin sensitive strain and several multidrug-resistant strains) from Department of Microbiology, St. Olavs University Hospital, Trondheim, Norway, kindly provided by professor Kåre Bergh; Escherichia coli: strains DH5α, BL21 (RIPL) DE3 (Novagen), K12 (MG1655) wild type (WT) and TLS deletion strains (ΔPol II^3, ΔPol IV^1, ΔPol V^1, ΔPol II/IV^3, ΔPol II/V^3, ΔPol IV/V^2 and ΔPol II/IV/V^3). ^1 Keio collection, ^2 generated by Prof Magnar Bjørås’ group, UiO and ^3prepared as described ([43]). Briefly, polB was inactivated in E. coli MG1655 WT, ΔPol IV, ΔPol V and ΔPol IV/V using JW0059:: polB. A phage stock (T4GT7) diluted in T4 buffer was added to the JW0059::polB culture, incubated and plated on LB agar plates. The lysate was harvested and added to 2 ml T4 buffer and 0.2 ml CHCl3 (T4GT7 lysate). The mixture was centrifuged, and supernatant stored at 4°C over 20 μl CHCl3. 0.5 ml overnight culture of the recipient cells was re-suspended in 1 ml of T4 buffer and aliquoted. The T4GT7 lysate (10^−1, 10^−2, 10^−3 and 10^−4 dilutions) was added to the aliquots, incubated for 25 minutes (min) at room temperature and plated on LB-agar plates with kanamycin. Colonies obtained were re-streaked twice to obtain a pure culture. Kanamycin resistance cassettes replacing the deleted polB genes were removed by an FLP-recombinase expressed by pCP20 plasmid.
as §3

[14] = tested on: E. coli BL21; assay: Overexpression (viability) assay; assay type: cell-based, Escherichia coli; conditions: IPTG 1 mM; 2 and 8 h after induction; peptide without cell penetrating part (MD-APIM-GILQSTLA); Figure 1D, Suppl. S1A
Description: A stop codon is found in the multiple cloning site after the NcoI/NheI site. The sequence over-expressed is MD-APIM-[…].
Induction was performed using isopropyl β-D-1-thiogalactopyranoside (IPTG) (1 mM) at OD600 = 0.3 - 0.4. Bacterial growth was measured by OD600 or the number of colony-forming units (CFU) per ml.

[15] = tested on: E. coli BL21; assay: Rif^R mutagenicity assay, overexpressed peptides; assay type: cell-based, Escherichia coli
Description: as §3

[16] = molar form of the μg/ml MIC (RWLVK MW = 3674 Da, ciprofloxacin MW = 313 Da), n = 3
[17] = molar form of the μg/ml MIC, n = 3
[18] = Mueller-Hinton Broth, 5 × 10^5 CFU/ml, 37°C, average of ≥3 independent biological experiments

Ac-MDRWLVKW
Binding of octamer peptide to WT β-clamp (SPR) [1]: bound stronger | Binding of peptide to all β-clamp variants (SPR) ([2]; H148K, M362D, V151A, P363D, P242D, V247F versus WT): reduced ability to bind | Reduced binding of peptide to β-clamp V247F (SPR) ([2]; β-clampV247F versus WT): ~50% | Binding to β-clamp by 1D 1H NMR (line broadening, chemical shift or intensity change) [3]: visual line broadening

Ac-MDRWLVKWKKKRKIRRRRRRRRRRR-NH2 [RWLVK]
Minimal Inhibitory Concentration (MIC) S.aureus ATCC 29213 ([4]; ATCC 29213, 24 h): 10 µg/mL | Minimal Inhibitory Concentration (MIC) S.aureus ATCC 29213 [4, 16]: 3 µM | Minimal Inhibitory Concentration (MIC) S.aureus FDA486 ([5]; FDA486, 24 h): 10 µg/mL | Minimal Inhibitory Concentration (MIC) S.aureus FDA486 [5, 17]: 3 µM | Minimal Inhibitory Concentration (MIC) S.aureus (MRSA) 43484 ([6]; 43484, 24 h): 10 µg/mL | Minimal Inhibitory Concentration (MIC) S.aureus (MRSA) 43484 [6, 17]: 3 µM | Minimal Inhibitory Concentration (MIC) S.aureus FusA88799 ([7]; Mueller-Hinton Broth, 5 × 10^5 CFU/ml, 24 h, 37°C, visible growth): 10 µg/mL | Minimal Inhibitory Concentration (MIC) S.aureus FusA88799 ([7]; molar form of the μg/ml MIC): 3 µM | Minimal Inhibitory Concentration (MIC) S.epidermidis (MRSE) [8]: 3 µM | Minimal Inhibitory Concentration (MIC) E. coli BL21 [9]: 5 µM | Minimal Inhibitory Concentration (MIC) E. coli MG1655 [10]: 11 µM | Kd [11]: < 50 µM | Effect on UV-induced mutation frequency ([12]; E. coli MG1655, peptide 20 μM, 2 mJ UVC/cm^2, Figure 4A): reduced the mutation frequency | Mutation frequency, added peptides [12]: 5.9 ± 2.3 ** Rif^R/10^8 CFU | Effect on mutation frequency after UV-damage in all Pol V containing strains ([13]; UV 2 mJ/cm^2, Figure 4C): reduced the mutation frequency | Effect on mutation frequency after UV-irradiation in the ΔPol IV/V strain ([13]; UV 2 mJ/cm^2, Figure 4C): reduction in the mutation frequency | Effect on spontaneous mutation frequency in wild type (WT) ([13]; n = 8–10, Figure 4C): significantly reduced | Effect on mutation frequency in the TLS deficient ΔPol II/IV/V strain ([13]; under any conditions (spontaneous and UV)): No reduction of mutation frequency | Effect on spontaneous mutation frequency in the ΔPol II/V strain ([13]; Figure 4C): increased mutation frequency

Ac-MDRALVKWKKKRKIRRRRRRRRRRR-NH2 [RALVK]
Minimal Inhibitory Concentration (MIC) S.epidermidis (MRSE) [8, 18]: 3 µM | Minimal Inhibitory Concentration (MIC) E. coli BL21 [9]: 5 µM | Minimal Inhibitory Concentration (MIC) E. coli MG1655 [10]: 9 µM | Kd ([11]; cell penetrating peptides, MST buffer with 2% fetal bovine serum, initial in vitro binding experiments, bounds given, read-out: KD for the β-clamp (MST)): > 750 µM

O=C(O)c1cn(C2CC2)c2cc(N3CCNCC3)c(F)cc2c1=O [Ciprofloxacin, reference compound]
MIC ([4]; Staphylococcus aureus, ATCC29213, Mueller-Hinton Broth, 5 × 10^5 CFU/ml, 24 h, 37°C, visible growth, same result in three biological replicates (n = 3), read-out: Minimal Inhibitory Concentration (MIC) S.aureus ATCC 29213): 0.5 µg/mL (≈ 1.51 µM) | Minimal Inhibitory Concentration (MIC) S.aureus ATCC 29213 [4, 16]: 1.5 µM | MIC ([5]; Staphylococcus aureus, FDA486, Mueller-Hinton Broth, 5 × 10^5 CFU/ml, 24 h, 37°C, visible growth, n = 3, read-out: Minimal Inhibitory Concentration (MIC) S.aureus FDA486): 0.25 µg/mL (≈ 0.754 µM) | Minimal Inhibitory Concentration (MIC) S.aureus FDA486 [5, 17]: 0.8 µM

MD-RALVK- GILQSTLA [RALVK (overexpressed)]
Effect of peptide overexpression on bacterial growth (CFU/ml relative to uninduced culture; OD600) [14]: did not inhibit bacterial growth

MD-RWLK- GILQSTLA [RWLK (overexpressed)]
Effect of peptide overexpression on bacterial growth (CFU/ml relative to uninduced culture; OD600) [14]: did not inhibit bacterial growth | Effect of overexpression on the mutation frequency ([15]; E. coli BL21, spontaneous): did not affect the mutation frequency | Mutation frequency, overexpressed peptides ([15]; spontaneous, E. coli BL21, IPTG 1 mM, 2 h, average ± SEM, RWLVK n = 5, RFSLK n = 5, RWLK n = 6, control 2.5 ± 0.4): 3.8 ± 1.2 Rif^R/10^8 CFU

Ac-MDRWLKWKKKRKIRRRRRRRRRRR-NH2 [RWLK]
Minimal Inhibitory Concentration (MIC) S.epidermidis (MRSE) [8, 18]: 4 µM | Minimal Inhibitory Concentration (MIC) E. coli BL21 [9]: 6 µM | Minimal Inhibitory Concentration (MIC) E. coli MG1655 [10]: 12 µM | KD for the β-clamp (MST) ([11]; cell penetrating peptides, MST buffer with 2% fetal bovine serum, initial in vitro binding experiments, bounds given): no binding was detected | Mutation frequency, added peptides [12]: 7.7 ± 3.3 Rif^R/10^8 CFU

Ac-MDAWLVKW
Binding to β-clamp by 1D 1H NMR (line broadening, chemical shift or intensity change) [3]: could not detect any binding

Reference: article PMC7261172, “Peptides containing the PCNA interacting motif APIM bind to the β-clamp and inhibit bacterial growth and mutagenesis” (Nucleic Acids Research, 2020)
